Measurements taken from PMC11496704, “Synthesis and cytotoxicity studies of novel N-arylbenzo[h]quinazolin-2-amines” (Beilstein Journal of Organic Chemistry, 2024).

Test system: HuH-7
Test: Cytotoxicity secondary screen (IC50)
Format: cell-based
Conditions: Homo sapiens, 48 h exposure, mean of triplicates, NE: no effect
Protocol: (§1) Cell culture. Skin normal fibroblastic cells are purchased from Lonza (Basel, Switzerland), HuH-7, Caco-2, MDA-MB-231, HCT-116, PC3, MCF7 and NCI-H727 cancer cell lines were obtained from ATCC (American Type Culture Collection). Cells are grown at 37 °C, 5% CO2 in ATCC recommended media: DMEM for HuH-7, MDA-MB-231, MDA-MB-468 and fibroblast, EMEM for MCF7 and CaCo-2, McCoy’s for HCT-116 and RPMI for PC3 and NCI-H727. All culture media are supplemented by 10% of FBS, 1% of penicillin-streptomycin and 2 mM glutamine.
(§2) Both studies have been performed following the protocols described in a previous paper, see ref. [2].

Compound	IC50
Fc1cccc(Nc2ncc3ccc4ccccc4c3n2)c1 [Compound 4i, N-(3-fluorophenyl)benzo[h]quinazolin-2-amine]	17 µM
Clc1ccccc1Nc1ncc2ccc3ccccc3c2n1 [Compound 4k, N-(2-chlorophenyl)benzo[h]quinazolin-2-amine]	> 25 µM
Clc1cccc(Nc2ncc3ccc4ccccc4c3n2)c1 [Compound 4l, N-(3-chlorophenyl)benzo[h]quinazolin-2-amine]	22 µM

Test system: PC3
Test: Cytotoxicity secondary screen (IC50)
Format: cell-based
Conditions: Homo sapiens, PC-3; 48 h exposure, mean of triplicates; NE: no effect
Protocol: as §1, §2

Compound	IC50
Fc1cccc(Nc2ncc3ccc4ccccc4c3n2)c1 [Compound 4i, N-(3-fluorophenyl)benzo[h]quinazolin-2-amine]	11 µM
Clc1ccccc1Nc1ncc2ccc3ccccc3c2n1 [Compound 4k, N-(2-chlorophenyl)benzo[h]quinazolin-2-amine]	> 25 µM
Clc1cccc(Nc2ncc3ccc4ccccc4c3n2)c1 [Compound 4l, N-(3-chlorophenyl)benzo[h]quinazolin-2-amine]	26 µM

Test system: normal human fibroblasts
Test: Cytotoxicity secondary screen (IC50)
Format: cell-based
Conditions: Fibroblast, 48 h exposure, mean of triplicates, NE: no effect, highest concentration tested 25 μM, read-out: IC50 Fibro
Protocol: as §1, §2

Compound	IC50
Fc1cccc(Nc2ncc3ccc4ccccc4c3n2)c1 [Compound 4i, N-(3-fluorophenyl)benzo[h]quinazolin-2-amine]	> 25 µM
Clc1ccccc1Nc1ncc2ccc3ccccc3c2n1 [Compound 4k, N-(2-chlorophenyl)benzo[h]quinazolin-2-amine]	> 25 µM
Clc1cccc(Nc2ncc3ccc4ccccc4c3n2)c1 [Compound 4l, N-(3-chlorophenyl)benzo[h]quinazolin-2-amine]	> 25 µM

Test system: Caco-2
Test: Cytotoxicity secondary screen (IC50)
Format: cell-based
Conditions: Homo sapiens, 48 h exposure, mean of triplicates, NE: no effect
Protocol: (§3) Next, we performed a cytotoxicity screening of the nineteen molecules 4a–s, at 25 μM, investigating seven representative cancer cell lines: hepatocellular carcinoma HuH-7, colorectal adenocarcinoma CaCo-2, breast carcinoma MDA-MB-231 and MDA-MB-468, colorectal carcinoma HCT-116, prostate carcinoma PC3 and breast carcinoma MCF7. […] For details see: ref. [2] and Supporting Information File 1, Table S1.
as §1, §2

Compound	IC50
Fc1cccc(Nc2ncc3ccc4ccccc4c3n2)c1 [Compound 4i, N-(3-fluorophenyl)benzo[h]quinazolin-2-amine]	2 µM
Clc1ccccc1Nc1ncc2ccc3ccccc3c2n1 [Compound 4k, N-(2-chlorophenyl)benzo[h]quinazolin-2-amine]	> 25 µM
Clc1cccc(Nc2ncc3ccc4ccccc4c3n2)c1 [Compound 4l, N-(3-chlorophenyl)benzo[h]quinazolin-2-amine]	17 µM

Test system: HCT-116
Test: Cytotoxicity secondary screen (IC50)
Format: cell-based
Conditions: Homo sapiens, 48 h exposure, mean of triplicates, NE: no effect
Protocol: as §3, §1, §2

Compound	IC50
Fc1cccc(Nc2ncc3ccc4ccccc4c3n2)c1 [Compound 4i, N-(3-fluorophenyl)benzo[h]quinazolin-2-amine]	6 µM
Clc1ccccc1Nc1ncc2ccc3ccccc3c2n1 [Compound 4k, N-(2-chlorophenyl)benzo[h]quinazolin-2-amine]	> 25 µM
Clc1cccc(Nc2ncc3ccc4ccccc4c3n2)c1 [Compound 4l, N-(3-chlorophenyl)benzo[h]quinazolin-2-amine]	24 µM

Test system: Caco-2
Test: Cytotoxicity primary screen (single dose)
Format: cell-based
Conditions: single dose 25 μM, 48 h exposure, mean of triplicates
Protocol: as §3, §1, §2
(§4) Table S1: Cytotoxicity studies (single dose at 25µM) of N-arylbenzo[h]quinazolin-2-amines 4a–s
(§5) The toxicity is expressed as the percentage of cell survival (from 100 % to 0 %) over DMSO control after 48 h exposure (mean of triplicates).
(§6) Effect of the solvent (DMSO) was studied at 0.25%.

Compound	percentage of cell survival over DMSO control, CaCo-2
Fc1cccc(Nc2ncc3ccc4ccccc4c3n2)c1 [Compound 4i, N-(3-fluorophenyl)benzo[h]quinazolin-2-amine]	34%
Clc1ccccc1Nc1ncc2ccc3ccccc3c2n1 [Compound 4k, N-(2-chlorophenyl)benzo[h]quinazolin-2-amine]	61%
Clc1cccc(Nc2ncc3ccc4ccccc4c3n2)c1 [Compound 4l, N-(3-chlorophenyl)benzo[h]quinazolin-2-amine]	38%

Test system: HuH7
Test: Cytotoxicity primary screen (single dose)
Format: cell-based
Conditions: Homo sapiens, Huh-7; single dose 25 μM, 48 h exposure, mean of triplicates; read-out: percentage of cell survival over DMSO control, HuH7
Protocol: as §3, §1, §2, §4, §5, §6

Compound	viability at 25 µM
Fc1cccc(Nc2ncc3ccc4ccccc4c3n2)c1 [Compound 4i, N-(3-fluorophenyl)benzo[h]quinazolin-2-amine]	60%
Clc1ccccc1Nc1ncc2ccc3ccccc3c2n1 [Compound 4k, N-(2-chlorophenyl)benzo[h]quinazolin-2-amine]	76%
Clc1cccc(Nc2ncc3ccc4ccccc4c3n2)c1 [Compound 4l, N-(3-chlorophenyl)benzo[h]quinazolin-2-amine]	71%

Test system: HCT116
Test: Cytotoxicity primary screen (single dose)
Format: cell-based
Conditions: Homo sapiens, HCT-116; single dose 25 μM, 48 h exposure, mean of triplicates; read-out: percentage of cell survival over DMSO control, HCT116
Protocol: as §3, §1, §2, §4, §5, §6

Compound	viability at 25 µM
Fc1cccc(Nc2ncc3ccc4ccccc4c3n2)c1 [Compound 4i, N-(3-fluorophenyl)benzo[h]quinazolin-2-amine]	11%
Clc1ccccc1Nc1ncc2ccc3ccccc3c2n1 [Compound 4k, N-(2-chlorophenyl)benzo[h]quinazolin-2-amine]	83%
Clc1cccc(Nc2ncc3ccc4ccccc4c3n2)c1 [Compound 4l, N-(3-chlorophenyl)benzo[h]quinazolin-2-amine]	56%

Test system: MCF7
Test: Cytotoxicity primary screen (single dose)
Format: cell-based
Conditions: Homo sapiens, single dose 25 μM, 48 h exposure, mean of triplicates, read-out: percentage of cell survival over DMSO control, MCF7
Protocol: as §3, §1, §2, §4, §5, §6

Compound	viability at 25 µM
Fc1cccc(Nc2ncc3ccc4ccccc4c3n2)c1 [Compound 4i, N-(3-fluorophenyl)benzo[h]quinazolin-2-amine]	59%
Clc1ccccc1Nc1ncc2ccc3ccccc3c2n1 [Compound 4k, N-(2-chlorophenyl)benzo[h]quinazolin-2-amine]	56%
Clc1cccc(Nc2ncc3ccc4ccccc4c3n2)c1 [Compound 4l, N-(3-chlorophenyl)benzo[h]quinazolin-2-amine]	68%

Test system: MDA231
Test: Cytotoxicity primary screen (single dose)
Format: cell-based
Conditions: Homo sapiens, MDA-MB-231; single dose 25 μM, 48 h exposure, mean of triplicates; read-out: percentage of cell survival over DMSO control, MDA231
Protocol: as §3, §1, §2, §4, §5, §6

Compound	viability at 25 µM
Fc1cccc(Nc2ncc3ccc4ccccc4c3n2)c1 [Compound 4i, N-(3-fluorophenyl)benzo[h]quinazolin-2-amine]	49%
Clc1ccccc1Nc1ncc2ccc3ccccc3c2n1 [Compound 4k, N-(2-chlorophenyl)benzo[h]quinazolin-2-amine]	91%
Clc1cccc(Nc2ncc3ccc4ccccc4c3n2)c1 [Compound 4l, N-(3-chlorophenyl)benzo[h]quinazolin-2-amine]	67%

Test system: MDA468
Test: Cytotoxicity primary screen (single dose)
Format: cell-based
Conditions: single dose 25 μM, 48 h exposure, mean of triplicates; read-out: percentage of cell survival over DMSO control, MDA468
Protocol: as §3, §1, §2, §4, §5, §6

Compound	viability at 25 µM
Fc1cccc(Nc2ncc3ccc4ccccc4c3n2)c1 [Compound 4i, N-(3-fluorophenyl)benzo[h]quinazolin-2-amine]	59%
Clc1ccccc1Nc1ncc2ccc3ccccc3c2n1 [Compound 4k, N-(2-chlorophenyl)benzo[h]quinazolin-2-amine]	93%
Clc1cccc(Nc2ncc3ccc4ccccc4c3n2)c1 [Compound 4l, N-(3-chlorophenyl)benzo[h]quinazolin-2-amine]	78%

Test system: PC3
Test: Cytotoxicity primary screen (single dose)
Format: cell-based
Conditions: Homo sapiens, PC-3; single dose 25 μM, 48 h exposure, mean of triplicates; read-out: percentage of cell survival over DMSO control, PC3
Protocol: as §3, §1, §2, §4, §5, §6

Compound	viability at 25 µM
Fc1cccc(Nc2ncc3ccc4ccccc4c3n2)c1 [Compound 4i, N-(3-fluorophenyl)benzo[h]quinazolin-2-amine]	36%
Clc1ccccc1Nc1ncc2ccc3ccccc3c2n1 [Compound 4k, N-(2-chlorophenyl)benzo[h]quinazolin-2-amine]	73%
Clc1cccc(Nc2ncc3ccc4ccccc4c3n2)c1 [Compound 4l, N-(3-chlorophenyl)benzo[h]quinazolin-2-amine]	59%

Test system: seven representative tumor cell lines
Test: Cytotoxicity IC50, summary over several cell lines
Format: cell-based
Conditions: on Caco-2, MDA-MB-468, HCT-116 and MCF7; read-out: IC50 (span over cell lines)
Protocol: as §1, with “For details see: ref. [2] and Supporting Information File 1, Table S1. […] [table] Cell culture.” for “Cell culture.”, “mM glutamine. Both studies have been performed following the protocols described in a previous paper, see ref. [2].” for “mM glutamine.”

Compound	IC50
Fc1cccc(Nc2ncc3ccc4ccccc4c3n2)c1 [Compound 4i, N-(3-fluorophenyl)benzo[h]quinazolin-2-amine]	2 to 6 µM

Test system: MDA-MB-231
Test: Cytotoxicity secondary screen (IC50)
Format: cell-based
Conditions: Homo sapiens, 48 h exposure, mean of triplicates, NE: no effect

Compound	IC50
Fc1cccc(Nc2ncc3ccc4ccccc4c3n2)c1 [Compound 4i, N-(3-fluorophenyl)benzo[h]quinazolin-2-amine]	17 µM
Clc1ccccc1Nc1ncc2ccc3ccccc3c2n1 [Compound 4k, N-(2-chlorophenyl)benzo[h]quinazolin-2-amine]	> 25 µM
Clc1cccc(Nc2ncc3ccc4ccccc4c3n2)c1 [Compound 4l, N-(3-chlorophenyl)benzo[h]quinazolin-2-amine]	> 25 µM

Test system: MDA-MB-468
Test: Cytotoxicity secondary screen (IC50)
Format: cell-based
Conditions: Homo sapiens, 48 h exposure, mean of triplicates, NE: no effect

Compound	IC50
Fc1cccc(Nc2ncc3ccc4ccccc4c3n2)c1 [Compound 4i, N-(3-fluorophenyl)benzo[h]quinazolin-2-amine]	4 µM
Clc1ccccc1Nc1ncc2ccc3ccccc3c2n1 [Compound 4k, N-(2-chlorophenyl)benzo[h]quinazolin-2-amine]	> 25 µM
Clc1cccc(Nc2ncc3ccc4ccccc4c3n2)c1 [Compound 4l, N-(3-chlorophenyl)benzo[h]quinazolin-2-amine]	26 µM

Test system: MCF7
Test: Cytotoxicity secondary screen (IC50)
Format: cell-based
Conditions: Homo sapiens, 48 h exposure, mean of triplicates, NE: no effect

Compound	IC50
Fc1cccc(Nc2ncc3ccc4ccccc4c3n2)c1 [Compound 4i, N-(3-fluorophenyl)benzo[h]quinazolin-2-amine]	3 µM
Clc1ccccc1Nc1ncc2ccc3ccccc3c2n1 [Compound 4k, N-(2-chlorophenyl)benzo[h]quinazolin-2-amine]	> 25 µM
Clc1cccc(Nc2ncc3ccc4ccccc4c3n2)c1 [Compound 4l, N-(3-chlorophenyl)benzo[h]quinazolin-2-amine]	18 µM
